Results from paper doi:10.1101/2023.05.15.540828, “Optimization of 3-Cyano-7-cyclopropylamino-pyrazolo[1,5-a]pyrimidines Toward the Development of an In Vivo Chemical Probe for CSNK2A” (bioRxiv, 2023).

Tests used:
CSNK2A1 = target: T1, CSNK2A1 (Homo sapiens, UniProt P68400); test: NanoBRET in-cell target engagement, Tracer K10 displacement, HEK293; format: cell-based
T1 construct: CSNK2A-NLuc fusion

CSNK2A2 = target: T2, CSNK2A2 (Homo sapiens, UniProt P19784); test: as above; format: cell-based
T2 construct: CSNK2A-NLuc fusion
T2 sequence (P19784 whole entry, the tested form may be a part): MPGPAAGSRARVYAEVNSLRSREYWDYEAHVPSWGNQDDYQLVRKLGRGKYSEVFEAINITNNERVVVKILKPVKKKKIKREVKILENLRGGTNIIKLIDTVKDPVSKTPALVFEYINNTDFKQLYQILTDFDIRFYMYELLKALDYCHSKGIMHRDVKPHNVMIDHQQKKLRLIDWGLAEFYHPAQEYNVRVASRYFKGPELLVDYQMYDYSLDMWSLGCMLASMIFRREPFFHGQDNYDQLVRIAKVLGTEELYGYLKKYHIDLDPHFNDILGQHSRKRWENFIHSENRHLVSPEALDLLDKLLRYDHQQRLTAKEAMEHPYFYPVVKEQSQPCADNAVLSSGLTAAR

T1 sequence (P68400 whole entry, the tested form may be a part): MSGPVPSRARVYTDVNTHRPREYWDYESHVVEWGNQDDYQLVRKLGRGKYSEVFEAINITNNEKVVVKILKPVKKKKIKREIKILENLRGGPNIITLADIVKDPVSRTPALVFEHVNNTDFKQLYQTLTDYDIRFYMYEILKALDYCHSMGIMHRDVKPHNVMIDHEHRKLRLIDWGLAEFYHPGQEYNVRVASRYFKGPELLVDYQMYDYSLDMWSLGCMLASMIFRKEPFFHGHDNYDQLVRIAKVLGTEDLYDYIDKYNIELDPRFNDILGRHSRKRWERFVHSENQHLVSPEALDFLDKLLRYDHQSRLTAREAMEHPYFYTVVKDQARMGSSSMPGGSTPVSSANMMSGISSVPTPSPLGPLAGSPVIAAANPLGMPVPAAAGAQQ

SMILES	[drawing 10] / CSNK2A1 pIC50^a (CSNK2A1) [pIC50]	[drawing 10] / CSNK2A2 pIC50^a (CSNK2A2) [pIC50]
CN[C@H]1CCCN(c2ccc(Nc3cc(NC4CC4)n4ncc(C#N)c4n3)cc2NC(C)=O)C1 [2c, (S)-N-(5-((3-cyano-7-(cyclopropylamino)pyrazolo[1,5-a]pyrimidin-5-yl)amino)-2-(3-(methylamino)piperidin-1-yl)phenyl)acetamide]	8.3	8.4
CN[C@@H]1CCN(c2ccc(Nc3cc(NC4CC4)n4ncc(C#N)c4n3)cc2NC(C)=O)C1 [2d, (R)-N-(5-((3-cyano-7-(cyclopropylamino)pyrazolo[1,5-a]pyrimidin-5-yl)amino)-2-(3-(methylamino)pyrrolidin-1-yl)phenyl)acetamide]	8.6	8.8
CN[C@H]1CCN(c2ccc(Nc3cc(NC4CC4)n4ncc(C#N)c4n3)cc2NC(C)=O)C1 [2e, (S)-N-(5-((3-cyano-7-(cyclopropylamino)pyrazolo[1,5-a]pyrimidin-5-yl)amino)-2-(3-(methylamino)pyrrolidin-1-yl)phenyl)acetamide]	8.3	8.4
CC(=O)Nc1cc(Nc2cc(NC3CC3)n3ncc(C#N)c3n2)ccc1N(C)C[C@@H]1CCCN1 [2f, (S)-N-(5-((3-cyano-7-(cyclopropylamino)pyrazolo[1,5-a]pyrimidin-5-yl)amino)-2-(methyl(pyrrolidin-2-ylmethyl)amino)phenyl)acetamide]	8.4	8.5
CC(=O)Nc1cc(Nc2cc(NC3CC3)n3ncc(C#N)c3n2)ccc1N[C@@H]1CCCOC1 [2m, (R)-N-(5-((3-cyano-7-(cyclopropylamino)pyrazolo[1,5-a]pyrimidin-5-yl)amino)-2-((tetrahydro-2H-pyran-3-yl)amino)phenyl)acetamide]	8.0	8.1
